From patent publication US20020035260A1, “4-aza-steroids” (Novopharm Limited, priority 1997, published 2002)
“And” between values parts separate entries of the source, which are not always exact repeats. Equal entries are not always repeated. Where two headings read alike, the source gives them in different places.

Tests used:
Format in all cases: biochemical
5-α-reductase I enzyme = target: T1, 5-α-reductase I enzyme (Rattus norvegicus, UniProt P24008); assay: Rat 5-α-reductase I enzyme assay (rat prostate); conditions: range of IC50 values from different experiments; pH 6.5, 2 μM 14C testosterone
T1 construct: Prostates, removed from 16 young male Sprague dawley rats (each weighing about 300-400 g), were minced and homogenized; from tissue; host or cells: rat prostate (Sprague Dawley), 140,000 g pellet
T1 sequence (P24008 1-259): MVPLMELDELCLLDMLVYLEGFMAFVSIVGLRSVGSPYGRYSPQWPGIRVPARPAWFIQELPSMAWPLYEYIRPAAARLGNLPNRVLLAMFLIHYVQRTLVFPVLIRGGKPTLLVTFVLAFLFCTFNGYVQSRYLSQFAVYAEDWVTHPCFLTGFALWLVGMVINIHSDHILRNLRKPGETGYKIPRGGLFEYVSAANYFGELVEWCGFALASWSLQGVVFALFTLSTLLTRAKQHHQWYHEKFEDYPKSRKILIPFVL
Experimental: (§1) Biochemical Assays were carried out to determine the inhibitory activities of various compounds of the previous examples on 5-α-reductase I enzyme isolated from male rate prostate and 5-α-reductase II enzyme isolated from rat epididymus and human prostate. These procedures were carried out following published literature procedures (H. Takami et al., J. Med. Chem., 39, pp 5047-5052; Tehming Liang, Margaret A. Cascieri et al., Endocrinology, 117, pp 571-579). Brief descriptions are as follows:
(§2) Rat 5-α-reductase I enzyme assay. Prostates, removed from 16 young male Sprague dawley rats (each weighing about 300-400 g), were minced and homogenized at 0-4° C. in 3 tissue volumes of buffer (0.32 M sucrose, 1 mM dithiothreitol, and 20 mM phosphate buffer, pH 6.5) using a polytron homogenizer. The homogenate was centrifuged at 4° C. at 140,000 g for 1 hour. The resultant pellet, after washing with the homogenizing buffer was suspended in the same buffer and stored at −70° C. The assay was carried out in a final volume of 0.5 ml containing 20 mM phosphate buffer (pH 6.5), 1 mM dithiothreitol, 150 μM NADPH, 2 μM ^14C testosterone and the enzyme concentration (500 μg-1 mg) For conducting the inhibitory studies on a 5-α-reductase I, finasteride and other test compounds were added in 10 μl of ethanol to a concentration 10^−9 to 10^−5 with five to six points including control using duplicate for each point to the above reaction mixture. The incubations were done for 20 minutes at 37° C. The reactions were stopped by adding 2.0 ml of ethyl acetate containing testosterone, 5-α-dihydrotestosterone, and androstenedione (10 μg each). After centrifugation at 1000 g for 5 minutes, the upper ethyl acetate extract was transferred to a tube and then evaporated under nitrogen to dryness. The compounds were taken up in 50 μl of ethyl acetate and chromatographed on Whatman LK5DF silica GF TLC plates using ethyl acetate-cyclohexane (1:1). The respective TLC spots corresponding to testosterone and dihydrotestosterone (Rf value same as that of androstenedione) were scraped from the plate and taken in respective scintillation vials. They were counted in the Beckman scintillation counter model No. LS 6500 with counting efficiency of 95% for ^14C carbon. Finasteride was used as a known standard during all screening. The range of IC50 values for different test compounds obtained from different experiments is shown in Table 1 under the column, Rat Prostate Enzyme I IC50.

5-α-reductase II enzyme [1] = target: T2, 5-α-reductase II enzyme (Rattus norvegicus, UniProt P31214); assay: Rat 5-α-reductase II enzyme assay (rat epididymus); conditions: range of IC50 values from different experiments; Tris-citrate pH 4.5
T2 construct: from tissue; host or cells: rat epididymis (Sprague Dawley), particulate fraction
T2 sequence (P31214 1-254): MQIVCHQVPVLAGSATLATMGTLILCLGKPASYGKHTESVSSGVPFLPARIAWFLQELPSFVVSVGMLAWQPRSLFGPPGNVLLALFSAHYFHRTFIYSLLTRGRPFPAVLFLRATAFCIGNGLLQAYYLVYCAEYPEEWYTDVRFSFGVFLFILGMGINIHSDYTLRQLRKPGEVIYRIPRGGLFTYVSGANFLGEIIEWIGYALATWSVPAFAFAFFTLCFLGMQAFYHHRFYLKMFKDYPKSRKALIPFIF
Experimental: as §1, §2
(§3) Rat 5-α-reductase II enzyme assay: Epididymus, taken out during the isolation of the rat prostates during rat enzyme I assay, was stored at −70° C. Isolation of the enzyme and the assay were carried out following the procedure described above, except the reaction buffer used was 40 mM Tris-citrate, pH 4.5. The range of IC50 values for different test compounds obtained from different experiments is shown in Table 1 under the column, Rat Epididymus Enzyme II IC50.

5-α-reductase II enzyme [2] = target: T3, 5-α-reductase II enzyme (Homo sapiens, UniProt P31213); assay: Human 5-α-reductase II enzyme assay (human prostate); conditions: Tris-citrate pH 5.0
T3 construct: Specimens of human prostates were quickly frozen in dry ice after collection and kept at −70° C. before isolation of the enzyme; from tissue; host or cells: human prostate specimens, particulate fraction
T3 sequence (P31213 1-254): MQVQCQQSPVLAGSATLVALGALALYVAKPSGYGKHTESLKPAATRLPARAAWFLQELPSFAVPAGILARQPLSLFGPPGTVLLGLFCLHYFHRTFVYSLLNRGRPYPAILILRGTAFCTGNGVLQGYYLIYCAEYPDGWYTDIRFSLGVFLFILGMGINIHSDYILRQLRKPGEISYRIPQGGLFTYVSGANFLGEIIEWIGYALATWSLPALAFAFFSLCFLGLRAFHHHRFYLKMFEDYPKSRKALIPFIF
Experimental: as §1, §3
(§4) Human 5-α-reductase II enzyme assay: Specimens of human prostates were quickly frozen in dry ice after collection and kept at −70° C. before isolation of the enzyme. Isolation of the enzyme and the assay were carried out following a similar procedure as for the isolation of rat 5-α-reductase II enzyme with some modifications. During the isolation of the enzyme, 50 μM NADPH was added to the homogenizing buffer as a stabilizer. The enzyme was stored in the homogenizing buffer containing 20% glycerol. The enzyme reaction buffer used as 40 mM Tris-citrate buffer, pH 5.0. The range of IC50 values for different test compounds obtained from different experiments is shown in Table 1 under the column, Human Prostate Enzyme II IC50.

5-α-reductase type II = target: T4, 5-α-reductase type II (Homo sapiens, UniProt P31213); assay: Activity against 5-α-reductase type II; conditions: statement in words, compared with finasteride
T4 sequence (P31213 1-254): T3 sequence (P31213 1-254)
Experimental: as §3, §4

[3] = range of IC50 values from different experiments, read-out: Human Prostate Enzyme II IC50

SMILES | IC50 (5-α-reductase I enzyme) | IC50 (5-α-reductase II enzyme [1]) | IC50 (5-α-reductase II enzyme [2]; [3]) [nM] | activity against 5-α-reductase type II (5-α-reductase type II) | IC50 (5-α-reductase II enzyme [2]; read-out: Human Prostate Enzyme II IC50) [nM] | IC50 (5-α-reductase II enzyme [2]; Human Prostate Enzyme II IC50, range of IC50 values from different experiments)
CC(C)(C)NC(=O)[C@H]1CC[C@H]2[C@@H]3[C@H](Cl)C[C@H]4NC(=O)CC[C@]4(C)[C@H]3CC[C@]12C [1,2-Dihydro-7-α-chloro-finasteride, 1,2-dihydro-7-α-chloro-finasteride] | 53 to 99 nM | 2.9 to 8.6 nM | 11.5 to 44 | – | – | –
CC(C)(C)NC(=O)[C@H]1CC[C@H]2[C@@H]3[C@@H](O)C[C@H]4NC(=O)CC[C@]4(C)[C@H]3CC[C@]12C [1,2-Dihydro-7-β-hydroxy-finasteride, 1,2-dihydro-7-β-hydroxy-finasteride] | 453 to 492 nM | 567 to 891 nM | 536 to 755 | – | – | –
CC(C)(C)NC(=O)[C@H]1C[C@@H](O)[C@H]2[C@@H]3CC[C@H]4NC(=O)CC[C@]4(C)[C@H]3CC[C@@]21C [1,2-Dihydro-15-β-hydroxy-finasteride, 1,2-dihydro-15β-hydroxy-finasteride] | 351 to 468 nM | – | – | – | – | –
CC(C)(C)NC(=O)[C@H]1CC[C@H]2[C@@H]3[C@H](N=[N+]=[N-])C[C@H]4NC(=O)C=C[C@]4(C)[C@H]3CC[C@]12C [7-α-Azido-finasteride, 7-α-azido-finasteride] | – | – | 19 to 32 | very high specific inhibitory activity | – | –
CC(C)(C)NC(=O)[C@H]1CC[C@H]2[C@@H]3[C@H](Cl)C[C@H]4NC(=O)C=C[C@]4(C)[C@H]3CC[C@]12C [7-α-Chloro-finasteride, 7-α-chloro-finasteride] | 306 to 350 nM | 1.92 to 3.1 nM | 0.9 to 3.6 | considerably higher than that of finasteride itself | – | –
CC(=O)O[C@H]1C[C@H]2NC(=O)C=C[C@]2(C)[C@H]2CC[C@]3(C)[C@@H](C(=O)NC(C)(C)C)CC[C@H]3[C@H]12 [7-β-Acetoxy-finasteride, 7-β-acetoxy-finasteride] | 385 to 697 nM | 135 to 357 nM | 175 to 362 | – | – | –
Cc1ccc(S(=O)(=O)O[C@H]2C[C@H]3NC(=O)C=C[C@]3(C)[C@H]3CC[C@]4(C)[C@@H](C(=O)NC(C)(C)C)CC[C@H]4[C@H]23)cc1 [7-β-Tosyloxy-finasteride, 7-β-tosyloxy-finasteride] | 1500 to 4300 nM | – | 213 to 570 | – | – | –
CC(C)(C)NC(=O)C1CCC2C3C(CCC12C)C1(C)C=CC(=O)NC1C[C@@H]3O (stereo partly drawn) [7-β-hydroxy-finasteride] | 811 to 1800 nM | 106 nM | 62 to 64 | – | – | –
CC(C)(C)NC(=O)[C@H]1CC=C2[C@@H]3CC[C@H]4NC(=O)C=C[C@]4(C)[C@H]3CC[C@@]21C [14,15-Dehydro-finasteride, 14,15-dehydro-finasteride] | 50 to 67 nM | 45 nM | 39 to 49.6 | – | – | –
CC(=O)O[C@@H]1C[C@H](C(=O)NC(C)(C)C)[C@@]2(C)CC[C@H]3[C@@H](CC[C@H]4NC(=O)C=C[C@@]43C)[C@H]12 [15-β-Acetoxy-finasteride, 15-β-acetoxy-finasteride] | 4200 to 5700 nM | 1600 to 2700 nM | – | – | 2010 | –
CC(C)(C)NC(=O)C1CC(O)C2C3CCC4NC(=O)C=CC4(C)C3CCC12C (stereo not drawn) [15-β-hydroxy-finasteride] | 805 to 853 nM | 640 nM | 50 to 59 | – | – | –
CC(C)(C)NC(=O)C1CCC2C3CCC4NC(=O)C=CC4(C)C3CCC12C (stereo not drawn) [Finasteride, (5α, 17β)-(1,1-dimethyl-ethyl)-3-oxo-4-aza-androst-1-ene-17-carboxamide, reference compound] | 11 to 38 nM and 13 to 30 nM | 5.1 to 14.8 nM and 2.9 to 11.8 nM | – | – | – | 2.7 to 10.6 nM and 3.3 to 7 nM
